Test results taken from ChEMBL document CHEMBL5678818, “Discovery of potent SOS1 inhibitors that block RAS activation via disruption of the RAS-SOS1 interaction” (Proc Natl Acad Sci U S A, 2019).

Key:
[1] = molecular target: Cyclin-dependent kinase 2 (Homo sapiens) (UniProt P24941); test: Inhibition of CDK2 (unknown origin) assessed as residual activity at 1000 nM by KINOMEscan analysis relative to control
[2] = molecular target: Beta-adrenergic receptor kinase 1 (Homo sapiens) (UniProt P25098); test: Inhibition of GRK2 (unknown origin) assessed as residual activity at 1000 nM by KINOMEscan analysis relative to control
[3] = molecular target: T1, Hormonally up-regulated neu tumor-associated kinase (Homo sapiens) (UniProt P57058); test: Inhibition of HUNK (unknown origin) assessed as residual activity at 1000 nM by KINOMEscan analysis relative to control
T1 sequence (whole entry): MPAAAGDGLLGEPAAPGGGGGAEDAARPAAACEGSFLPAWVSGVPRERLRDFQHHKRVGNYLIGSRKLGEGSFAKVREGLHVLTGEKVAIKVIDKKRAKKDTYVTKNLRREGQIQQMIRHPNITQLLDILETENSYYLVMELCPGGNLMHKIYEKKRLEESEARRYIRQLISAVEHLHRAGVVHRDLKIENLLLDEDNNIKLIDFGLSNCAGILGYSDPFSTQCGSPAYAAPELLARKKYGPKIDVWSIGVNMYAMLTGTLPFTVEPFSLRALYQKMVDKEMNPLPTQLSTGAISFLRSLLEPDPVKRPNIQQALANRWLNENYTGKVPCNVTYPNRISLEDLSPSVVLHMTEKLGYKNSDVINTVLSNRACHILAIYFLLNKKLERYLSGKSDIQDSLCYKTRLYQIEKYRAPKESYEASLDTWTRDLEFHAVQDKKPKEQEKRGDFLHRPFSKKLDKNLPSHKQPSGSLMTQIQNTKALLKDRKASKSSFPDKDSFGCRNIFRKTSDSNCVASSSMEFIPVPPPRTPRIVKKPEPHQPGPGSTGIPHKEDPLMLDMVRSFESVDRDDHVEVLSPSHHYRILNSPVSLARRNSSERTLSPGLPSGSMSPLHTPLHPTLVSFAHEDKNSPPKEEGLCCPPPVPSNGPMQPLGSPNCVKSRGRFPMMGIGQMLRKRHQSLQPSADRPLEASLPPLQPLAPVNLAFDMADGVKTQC

[4] = molecular target: Serine/threonine-protein kinase B-raf (Homo sapiens) (UniProt P15056); test: Inhibition of BRAF (unknown origin) assessed as residual activity at 1000 nM by KINOMEscan analysis relative to control
Calu-1 = test: Antiproliferative activity against human Calu-1 cells assessed as inhibition of cell viability incubated for 72 hrs by Cell Titer Glo assay; type: functional, cell-based; details: Calu-1, 72 h
[5] = molecular target: T2, Atypical kinase COQ8B, mitochondrial (Homo sapiens) (UniProt Q96D53); test: Inhibition of ADCK4 (unknown origin) assessed as residual activity at 1000 nM by KINOMEscan analysis relative to control
T2 sequence (whole entry): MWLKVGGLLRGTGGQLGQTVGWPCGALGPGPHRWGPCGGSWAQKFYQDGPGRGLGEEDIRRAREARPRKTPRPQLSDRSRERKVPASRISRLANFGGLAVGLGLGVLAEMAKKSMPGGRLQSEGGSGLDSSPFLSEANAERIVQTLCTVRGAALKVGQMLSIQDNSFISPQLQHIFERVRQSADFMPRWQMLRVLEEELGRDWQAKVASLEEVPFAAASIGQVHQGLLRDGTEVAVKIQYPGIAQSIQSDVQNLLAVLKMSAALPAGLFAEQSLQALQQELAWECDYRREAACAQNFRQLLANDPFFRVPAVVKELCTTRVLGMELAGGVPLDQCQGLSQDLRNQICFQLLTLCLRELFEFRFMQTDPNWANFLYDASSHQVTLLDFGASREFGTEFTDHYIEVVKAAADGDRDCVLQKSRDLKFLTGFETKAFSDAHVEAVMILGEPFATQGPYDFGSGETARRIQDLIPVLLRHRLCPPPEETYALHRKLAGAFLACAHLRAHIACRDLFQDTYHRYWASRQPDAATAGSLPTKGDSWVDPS

[6] = molecular target: Activated CDC42 kinase 1 (Homo sapiens) (UniProt Q07912); test: Inhibition of TNK2 (unknown origin) assessed as residual activity at 1000 nM by KINOMEscan analysis relative to control
[7] = molecular target: T3, Serine/threonine-protein kinase Nek9 (Homo sapiens) (UniProt Q8TD19); test: Inhibition of NEK9 (unknown origin) assessed as residual activity at 1000 nM by KINOMEscan analysis relative to control
T3 sequence (whole entry): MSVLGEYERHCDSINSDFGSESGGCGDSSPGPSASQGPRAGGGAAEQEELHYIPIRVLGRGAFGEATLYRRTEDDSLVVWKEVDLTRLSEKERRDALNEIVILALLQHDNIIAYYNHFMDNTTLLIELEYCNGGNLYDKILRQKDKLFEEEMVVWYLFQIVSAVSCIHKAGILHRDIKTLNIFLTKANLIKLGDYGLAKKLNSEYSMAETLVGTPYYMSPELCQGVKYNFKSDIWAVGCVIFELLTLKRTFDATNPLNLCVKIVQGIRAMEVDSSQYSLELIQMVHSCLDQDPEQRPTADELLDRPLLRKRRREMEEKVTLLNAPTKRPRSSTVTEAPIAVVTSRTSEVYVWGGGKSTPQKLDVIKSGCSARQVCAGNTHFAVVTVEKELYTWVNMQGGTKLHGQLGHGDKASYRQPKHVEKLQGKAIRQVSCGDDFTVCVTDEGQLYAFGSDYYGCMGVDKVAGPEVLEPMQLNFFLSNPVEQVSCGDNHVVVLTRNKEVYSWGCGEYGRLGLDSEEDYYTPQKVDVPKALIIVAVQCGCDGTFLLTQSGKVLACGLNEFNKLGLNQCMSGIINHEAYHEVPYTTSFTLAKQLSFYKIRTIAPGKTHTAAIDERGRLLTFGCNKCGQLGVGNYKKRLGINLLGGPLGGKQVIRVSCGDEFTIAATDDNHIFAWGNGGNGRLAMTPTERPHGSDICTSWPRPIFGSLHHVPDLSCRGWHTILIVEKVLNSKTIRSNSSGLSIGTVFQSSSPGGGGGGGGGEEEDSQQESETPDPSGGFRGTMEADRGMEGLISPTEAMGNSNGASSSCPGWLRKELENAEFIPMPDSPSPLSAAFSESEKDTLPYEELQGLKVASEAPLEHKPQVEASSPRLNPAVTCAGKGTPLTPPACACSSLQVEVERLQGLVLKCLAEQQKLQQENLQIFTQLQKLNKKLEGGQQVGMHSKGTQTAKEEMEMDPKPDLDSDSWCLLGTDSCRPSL

[8] = molecular target: Aurora kinase B (Homo sapiens) (UniProt Q96GD4); test: Inhibition of AURKB (unknown origin) assessed as residual activity at 1000 nM by KINOMEscan analysis relative to control
[9] = system: Epidermal growth factor receptor (Homo sapiens), P00533 [UNDEFINED MUTATION]; test: Inhibition of EGFR S752-I759del mutant (unknown origin) assessed as residual activity at 100 nM by KINOMEscan analysis relative to control
Sequence of Epidermal growth factor receptor (Homo sapiens), P00533 [UNDEFINED MUTATION] (P00533 whole entry, looked up, stated change not applied): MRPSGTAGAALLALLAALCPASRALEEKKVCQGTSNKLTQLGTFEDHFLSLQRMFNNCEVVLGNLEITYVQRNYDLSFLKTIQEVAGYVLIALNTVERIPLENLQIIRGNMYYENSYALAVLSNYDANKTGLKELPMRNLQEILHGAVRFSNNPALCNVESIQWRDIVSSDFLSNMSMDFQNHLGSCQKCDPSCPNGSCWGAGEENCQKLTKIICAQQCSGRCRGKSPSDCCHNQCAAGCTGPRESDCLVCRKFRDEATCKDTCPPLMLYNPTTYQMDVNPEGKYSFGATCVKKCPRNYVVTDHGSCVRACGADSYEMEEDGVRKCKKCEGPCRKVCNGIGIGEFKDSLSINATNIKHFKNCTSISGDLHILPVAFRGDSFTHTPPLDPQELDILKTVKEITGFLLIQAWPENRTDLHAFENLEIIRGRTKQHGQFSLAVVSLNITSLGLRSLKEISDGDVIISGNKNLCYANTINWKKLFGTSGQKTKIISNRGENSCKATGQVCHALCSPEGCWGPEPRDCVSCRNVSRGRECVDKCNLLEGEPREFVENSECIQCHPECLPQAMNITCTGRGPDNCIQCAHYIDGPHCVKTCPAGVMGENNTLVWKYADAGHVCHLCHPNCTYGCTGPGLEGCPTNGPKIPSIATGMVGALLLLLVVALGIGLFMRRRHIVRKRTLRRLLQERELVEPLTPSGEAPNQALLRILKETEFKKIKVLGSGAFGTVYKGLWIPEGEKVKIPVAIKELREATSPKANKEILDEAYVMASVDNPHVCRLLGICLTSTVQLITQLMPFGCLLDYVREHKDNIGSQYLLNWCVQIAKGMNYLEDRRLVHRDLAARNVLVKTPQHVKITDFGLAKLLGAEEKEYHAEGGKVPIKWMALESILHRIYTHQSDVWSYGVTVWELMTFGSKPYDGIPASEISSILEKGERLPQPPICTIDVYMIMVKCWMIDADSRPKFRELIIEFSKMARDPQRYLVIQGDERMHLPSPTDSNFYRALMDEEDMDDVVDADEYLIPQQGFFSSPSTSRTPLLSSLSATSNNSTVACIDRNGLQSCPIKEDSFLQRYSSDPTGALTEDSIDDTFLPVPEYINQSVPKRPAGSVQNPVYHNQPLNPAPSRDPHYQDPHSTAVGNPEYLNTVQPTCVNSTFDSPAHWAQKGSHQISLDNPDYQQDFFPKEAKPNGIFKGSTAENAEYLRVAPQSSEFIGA

Sequence of Serine/threonine-protein kinase B-raf (Homo sapiens) (P15056 whole entry): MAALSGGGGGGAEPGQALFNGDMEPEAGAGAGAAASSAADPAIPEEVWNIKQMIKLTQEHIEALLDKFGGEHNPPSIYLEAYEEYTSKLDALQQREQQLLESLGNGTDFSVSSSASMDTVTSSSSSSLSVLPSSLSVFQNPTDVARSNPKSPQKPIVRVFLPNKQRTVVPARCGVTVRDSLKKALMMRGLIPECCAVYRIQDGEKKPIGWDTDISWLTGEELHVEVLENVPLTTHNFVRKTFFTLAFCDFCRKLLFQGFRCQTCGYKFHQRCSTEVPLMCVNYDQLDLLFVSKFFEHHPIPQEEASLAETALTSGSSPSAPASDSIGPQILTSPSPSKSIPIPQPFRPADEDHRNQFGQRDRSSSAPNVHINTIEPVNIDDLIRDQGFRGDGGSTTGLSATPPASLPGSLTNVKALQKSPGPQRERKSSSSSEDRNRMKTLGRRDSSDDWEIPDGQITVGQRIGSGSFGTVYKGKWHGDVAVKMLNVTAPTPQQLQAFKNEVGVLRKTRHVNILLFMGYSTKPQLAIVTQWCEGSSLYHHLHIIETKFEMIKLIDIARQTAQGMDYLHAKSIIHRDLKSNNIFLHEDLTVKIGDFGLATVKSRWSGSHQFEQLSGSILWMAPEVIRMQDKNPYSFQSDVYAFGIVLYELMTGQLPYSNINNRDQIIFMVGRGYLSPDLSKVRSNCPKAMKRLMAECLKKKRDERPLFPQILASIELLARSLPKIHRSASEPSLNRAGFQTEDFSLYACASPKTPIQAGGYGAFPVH
Sequence of Activated CDC42 kinase 1 (Homo sapiens) (Q07912 whole entry, looked up): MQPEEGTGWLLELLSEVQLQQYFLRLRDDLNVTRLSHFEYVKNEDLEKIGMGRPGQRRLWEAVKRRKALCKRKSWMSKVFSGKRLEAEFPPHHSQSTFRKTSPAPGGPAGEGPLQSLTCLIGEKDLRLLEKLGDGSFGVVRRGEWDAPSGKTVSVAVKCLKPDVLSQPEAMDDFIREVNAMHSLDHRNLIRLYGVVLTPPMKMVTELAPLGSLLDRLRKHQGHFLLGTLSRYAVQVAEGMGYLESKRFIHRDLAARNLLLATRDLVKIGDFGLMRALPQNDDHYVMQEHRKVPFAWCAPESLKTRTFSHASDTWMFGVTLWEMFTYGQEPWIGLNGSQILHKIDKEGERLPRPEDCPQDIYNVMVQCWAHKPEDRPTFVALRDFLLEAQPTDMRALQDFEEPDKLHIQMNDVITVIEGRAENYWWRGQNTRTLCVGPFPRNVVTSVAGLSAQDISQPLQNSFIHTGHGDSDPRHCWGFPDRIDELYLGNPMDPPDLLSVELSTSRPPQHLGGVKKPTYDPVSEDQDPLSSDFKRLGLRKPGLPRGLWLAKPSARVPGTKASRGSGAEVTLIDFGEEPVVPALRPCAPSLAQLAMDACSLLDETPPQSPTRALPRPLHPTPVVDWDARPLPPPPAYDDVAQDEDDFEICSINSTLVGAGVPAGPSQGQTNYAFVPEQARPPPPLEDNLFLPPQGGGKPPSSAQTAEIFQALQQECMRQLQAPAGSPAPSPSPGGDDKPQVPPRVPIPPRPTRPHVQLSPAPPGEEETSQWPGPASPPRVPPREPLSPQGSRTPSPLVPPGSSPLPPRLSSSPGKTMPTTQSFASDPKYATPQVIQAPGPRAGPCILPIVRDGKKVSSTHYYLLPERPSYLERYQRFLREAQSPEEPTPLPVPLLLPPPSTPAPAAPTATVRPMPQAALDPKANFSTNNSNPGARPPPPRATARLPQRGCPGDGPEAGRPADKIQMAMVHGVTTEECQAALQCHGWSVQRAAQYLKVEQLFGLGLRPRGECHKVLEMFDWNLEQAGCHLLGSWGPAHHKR
Sequence of Aurora kinase B (Homo sapiens) (Q96GD4 whole entry): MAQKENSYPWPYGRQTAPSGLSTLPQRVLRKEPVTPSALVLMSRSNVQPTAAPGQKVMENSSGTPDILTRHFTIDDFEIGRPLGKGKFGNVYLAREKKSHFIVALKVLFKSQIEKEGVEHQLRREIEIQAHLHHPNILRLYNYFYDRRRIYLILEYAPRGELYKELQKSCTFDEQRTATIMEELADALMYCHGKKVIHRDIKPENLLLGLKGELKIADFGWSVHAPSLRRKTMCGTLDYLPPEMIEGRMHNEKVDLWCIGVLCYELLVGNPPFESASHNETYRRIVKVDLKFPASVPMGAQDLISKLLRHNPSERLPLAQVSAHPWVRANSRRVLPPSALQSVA
Sequence of Beta-adrenergic receptor kinase 1 (Homo sapiens) (P25098 whole entry): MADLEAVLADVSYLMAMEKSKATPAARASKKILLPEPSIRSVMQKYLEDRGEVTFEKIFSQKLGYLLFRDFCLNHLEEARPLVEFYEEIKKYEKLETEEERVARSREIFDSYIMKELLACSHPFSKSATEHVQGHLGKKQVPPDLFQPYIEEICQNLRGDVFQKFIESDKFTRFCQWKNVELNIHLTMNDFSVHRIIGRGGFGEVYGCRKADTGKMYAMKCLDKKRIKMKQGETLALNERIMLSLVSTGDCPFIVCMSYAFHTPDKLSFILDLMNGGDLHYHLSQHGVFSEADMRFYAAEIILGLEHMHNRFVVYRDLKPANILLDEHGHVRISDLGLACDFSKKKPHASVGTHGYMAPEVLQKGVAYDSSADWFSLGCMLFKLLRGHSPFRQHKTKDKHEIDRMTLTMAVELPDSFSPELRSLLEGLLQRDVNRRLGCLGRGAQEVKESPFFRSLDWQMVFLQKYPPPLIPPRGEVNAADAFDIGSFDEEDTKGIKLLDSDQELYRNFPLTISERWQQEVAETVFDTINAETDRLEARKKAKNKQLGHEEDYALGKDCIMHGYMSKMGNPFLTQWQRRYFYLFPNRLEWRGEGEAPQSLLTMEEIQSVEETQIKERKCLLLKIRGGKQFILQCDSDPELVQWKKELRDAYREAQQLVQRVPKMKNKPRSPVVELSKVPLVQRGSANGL

| Compound | Activity [1] [%] | Activity [2] [%] | Activity [3] [%] | Activity [4] [%] | IC50 (Calu-1) [µM] | Activity [5] [%] | Activity [6] [%] | Activity [7] [%] | Activity [8] [%] | Activity [9] [%] |
| --- | --- | --- | --- | --- | --- | --- | --- | --- | --- | --- |
| COc1cc2nc(C)nc(N[C@H](C)c3cccc(-c4cn[nH]c4)c3)c2cc1OC | 100 | 62 | 94 | 75 | 17 | 89 | 70 | 97 | 79 |  |
| COc1cc2ncnc(N[C@H](C)c3cccc4ccccc34)c2cc1OC | 100 |  | 76 | 91 |  | 100 | 100 | 100 | 98 | 93 |
| CNCc1ccccc1-c1csc([C@@H](C)Nc2nc(C)nc3cc(OC)c(OC)cc23)c1 [BAY-293] |  |  |  |  | 3.19 |  |  |  |  |  |
